Assay results published in patent publication US11787762B2, “Tetralin and tetrahydroquinoline compounds as inhibitors of HIF-2alpha” (ARCUS BIOSCIENCES, INC., priority 2020, dated 2023).

Target: T1, HIF-2α (Homo sapiens, UniProt Q99814)
T1 construct: host or cells: 786-O cells stably transduced with Cignal Lenti HIF Luc Reporter (only the reporter was introduced, not HIF-2α)
Assay: HIF-2α luciferase reporter assay in HIF-Luc-786-O cells
Type: cell-based
Details: Table 3, 20 hours incubation
Protocol: Generation of HIF-2α Luciferase 786-O Cell Line:
Stable cell lines were generated by transducing 786-O cells (ATCC, CRL-1932) with Cignal Lenti HIF Luc Reporter lentivirus (CLS-007 L, Qiagen) according to the manufacturer's guidelines. In brief, 0.3×10^6 786-0 cells were transduced with lentivirus at a Multiplicity of Infection (MOI) of 25 for 24 hours. After transduction, cells were replenished with fresh RPMI 1640 Medium (Cat. No. 11875085, Thermo Fisher,) supplemented with 10% FBS (Cat. No. A3160502, Gibco), 2 mM GlutaMax (Cat. No. 35050-061, Invitrogen) and 100 units of penicillin and 100 μg of streptomycin/mL (Cat. No 15070063, Thermo Fisher) for another 24 hours. Antibiotic selection was performed in cell media containing 4 μg/mL of Puromycin. After 7 days of antibiotic selection, stable pools of surviving cells were expanded and used in a luciferase reporter assay.
HIF-2α Luciferase Reporter Assay:
On day one, 20 uL of HIF-Luc-786-0 cells in OptiMem (Cat. No. 31985088, Thermo Fisher) were seeded into each well of a 384 well white opaque plate (Corning 3570) and incubated at 37° C. and 5% CO2. Twenty microliters of 2× test compounds in OptiMem were added to cells after 4 hours of incubation. Final assay conditions comprised 20,000 cells per well in 1% DMSO with test compound concentrations ranging from 50 uM to 0 uM. After 20 hours incubation at 37° C. and 5% CO2, luciferase activity was determined using ONE-Glo Luciferase Assay Reagent (E6110, Promega) following the manufacture's recommended procedure. Briefly, 40 uL of ONE-Glo luciferase reagents were added to each well and luciferase signals were measured using an Envision 2102 Multilabel Reader. Percentage maximum activity in each test well was calculated based on DMSO (maximum activity) and no cell control wells (baseline activity). The IC50 values of the test compounds were determined from compound dose response curves fitted using a standard four parameter fit equation.

T1 sequence (Q99814 whole entry): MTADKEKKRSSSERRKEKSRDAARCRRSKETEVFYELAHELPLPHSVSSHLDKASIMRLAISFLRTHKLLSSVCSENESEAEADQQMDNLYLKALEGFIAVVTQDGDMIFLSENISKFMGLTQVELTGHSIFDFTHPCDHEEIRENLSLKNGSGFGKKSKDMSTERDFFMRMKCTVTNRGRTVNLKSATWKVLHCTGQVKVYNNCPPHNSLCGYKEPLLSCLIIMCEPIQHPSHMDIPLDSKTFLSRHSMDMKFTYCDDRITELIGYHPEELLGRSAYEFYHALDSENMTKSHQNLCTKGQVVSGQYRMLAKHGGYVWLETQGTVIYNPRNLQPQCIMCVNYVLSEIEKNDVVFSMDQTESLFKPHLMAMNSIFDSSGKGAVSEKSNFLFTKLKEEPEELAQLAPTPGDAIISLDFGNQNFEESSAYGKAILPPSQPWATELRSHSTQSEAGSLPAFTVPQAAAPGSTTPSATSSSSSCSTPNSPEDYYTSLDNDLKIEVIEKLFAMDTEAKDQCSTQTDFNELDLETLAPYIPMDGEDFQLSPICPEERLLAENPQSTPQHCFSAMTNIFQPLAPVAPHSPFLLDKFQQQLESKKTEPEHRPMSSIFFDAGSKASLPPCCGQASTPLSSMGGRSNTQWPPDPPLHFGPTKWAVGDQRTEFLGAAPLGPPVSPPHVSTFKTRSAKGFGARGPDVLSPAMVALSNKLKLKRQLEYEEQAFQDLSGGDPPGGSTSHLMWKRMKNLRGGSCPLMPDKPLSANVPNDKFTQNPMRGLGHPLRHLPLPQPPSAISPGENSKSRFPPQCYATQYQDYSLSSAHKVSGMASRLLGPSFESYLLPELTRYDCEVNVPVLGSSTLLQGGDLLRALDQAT

Row | IC50 | SMILES
1 | < 100 nM | N#Cc1cc(F)cc2c1[C@@H](c1ccc(-c3cnc(C(N)=O)s3)c3c1CC(F)(F)[C@H]3O)CC[C@@H]2F [Example 180, 5-[(3S)-7-[(1R,4S)-8-cyano-4,6-difluoro-1,2,3,4-tetrahydronaphthalen-1-yl]-2,2-difluoro-3-hydroxy-1,3-dihydroinden-4-yl]-1,3-thiazole-2-carboxamide]
2 | 100 to 1000 nM | N#Cc1cc(F)cc2c1[C@@H](c1ccc(-c3ncncc3N)c3c1CC(F)(F)[C@H]3O)CC[C@@H]2F [Example 181, (5S,8R)-8-[(1S)-7-(5-aminopyrimidin-4-yl)-2,2-difluoro-1-hydroxy-1,3-dihydroinden-4-yl]-3,5-difluoro-5,6,7,8-tetrahydronaphthalene-1-carbonitrile]
3 | 100 to 1000 nM | Cn1cnc(-c2ccc([C@H]3CC[C@H](F)c4cc(F)cc(C#N)c43)c3c2[C@H](O)C(F)(F)C3)n1 [Example 182, (5S,8R)-8-[(1S)-2,2-difluoro-1-hydroxy-7-(1-methyl-1,2,4-triazol-3-yl)-1,3-dihydroinden-4-yl]-3,5-difluoro-5,6,7,8-tetrahydronaphthalene-1-carbonitrile]
4 | 100 to 1000 nM | Cc1c(-c2ccc([C@H]3CC[C@H](F)c4cc(F)cc(C#N)c43)c3c2[C@H](O)C(F)(F)C3)nnn1C [Example 183, (5S,8R)-8-[(1S)-7-(1,5-dimethyltriazol-4-yl)-2,2-difluoro-1-hydroxy-1,3-dihydroinden-4-yl]-3,5-difluoro-5,6,7,8-tetrahydronaphthalene-1-carbonitrile]
5 | < 100 nM | N#Cc1cc(F)cc2c1[C@@H](c1ccc(-c3cccnc3C#N)c3c1CC(F)(F)[C@H]3O)CC[C@@H]2F [Example 184, 3-[(3S)-7-[(1R,4S)-8-cyano-4,6-difluoro-1,2,3,4-tetrahydronaphthalen-1-yl]-2,2-difluoro-3-hydroxy-1,3-dihydroinden-4-yl]pyridine-2-carbonitrile]
6 | < 100 nM | Cc1ccc(-c2ccc([C@H]3CC[C@H](F)c4cc(F)cc(C#N)c43)c3c2[C@H](O)C(F)(F)C3)c(N)n1 [Example 185, (5S,8R)-8-[(1S)-7-(2-amino-6-methylpyridin-3-yl)-2,2-difluoro-1-hydroxy-1,3-dihydroinden-4-yl]-3,5-difluoro-5,6,7,8-tetrahydronaphthalene-1-carbonitrile]
7 | < 100 nM | N#Cc1cc(F)cc2c1[C@@H](c1ccc(-c3nccnc3N)c3c1CC(F)(F)[C@H]3O)CC[C@@H]2F [Example 186, (5S,8R)-8-[(1S)-7-(3-aminopyrazin-2-yl)-2,2-difluoro-1-hydroxy-1,3-dihydroinden-4-yl]-3,5-difluoro-5,6,7,8-tetrahydronaphthalene-1-carbonitrile]
8 | < 100 nM | N#Cc1cc(F)cc2c1[C@@H](c1ccc(-c3cccc4cn[nH]c34)c3c1CC(F)(F)[C@H]3O)CC[C@@H]2F [Example 187, (5S,8R)-8-[(1S)-2,2-difluoro-1-hydroxy-7-(1H-indazol-7-yl)-1,3-dihydroinden-4-yl]-3,5-difluoro-5,6,7,8-tetrahydronaphthalene-1-carbonitrile]
9 | 100 to 1000 nM | Cc1nc(N)sc1-c1ccc([C@H]2CC[C@H](F)c3cc(F)cc(C#N)c32)c2c1[C@H](O)C(F)(F)C2 [Example 188, (5S,8R)-8-[(1S)-7-(2-amino-4-methyl-1,3-thiazol-5-yl)-2,2-difluoro-1-hydroxy-1,3-dihydroinden-4-yl]-3,5-difluoro-5,6,7,8-tetrahydronaphthalene-1-carbonitrile]
10 | < 100 nM | N#Cc1cc(F)cc2c1[C@@H](c1ccc(-c3cccc4ncsc34)c3c1CC(F)(F)[C@H]3O)CC[C@@H]2F [Example 189, (5S,8R)-8-[(1S)-7-(1,3-benzothiazol-7-yl)-2,2-difluoro-1-hydroxy-1,3-dihydroinden-4-yl]-3,5-difluoro-5,6,7,8-tetrahydronaphthalene-1-carbonitrile]
11 | 100 to 1000 nM | N#Cc1cc(F)cc2c1[C@@H](c1ccc(-c3cccc4scnc34)c3c1CC(F)(F)[C@H]3O)CC[C@@H]2F [Example 190, (5S,8R)-8-[(1S)-7-(1,3-benzothiazol-4-yl)-2,2-difluoro-1-hydroxy-1,3-dihydroinden-4-yl]-3,5-difluoro-5,6,7,8-tetrahydronaphthalene-1-carbonitrile]
12 | < 100 nM | N#Cc1cc(F)cc2c1[C@@H](c1ccc(-c3scnc3CO)c3c1CC(F)(F)[C@H]3O)CC[C@@H]2F [Example 191, (5S,8R)-8-[(1S)-2,2-difluoro-1-hydroxy-7-[4-(hydroxymethyl)-1,3-thiazol-5-yl]-1,3-dihydroinden-4-yl]-3,5-difluoro-5,6,7,8-tetrahydronaphthalene-1-carbonitrile]
13 | < 100 nM | Cc1scnc1-c1ccc([C@H]2CC[C@H](F)c3cc(F)cc(C#N)c32)c2c1[C@H](O)C(F)(F)C2 [Example 192, (5S,8R)-8-[(1S)-2,2-difluoro-1-hydroxy-7-(5-methyl-1,3-thiazol-4-yl)-1,3-dihydroinden-4-yl]-3,5-difluoro-5,6,7,8-tetrahydronaphthalene-1-carbonitrile]
14 | < 100 nM | Cc1nc(C)c(-c2ccc([C@H]3CC[C@H](F)c4cc(F)cc(C#N)c43)c3c2[C@H](O)C(F)(F)C3)s1 [Example 193, (5S,8R)-8-[(1S)-7-(2,4-dimethyl-1,3-thiazol-5-yl)-2,2-difluoro-1-hydroxy-1,3-dihydroinden-4-yl]-3,5-difluoro-5,6,7,8-tetrahydronaphthalene-1-carbonitrile]
15 | < 100 nM | N#Cc1cc(F)cc2c1[C@@H](c1ccc(-c3ccc(F)cc3N)c3c1CC(F)(F)[C@H]3O)CC[C@@H]2F [Example 194, (5S,8R)-8-[(1S)-7-(2-amino-4-fluorophenyl)-2,2-difluoro-1-hydroxy-1,3-dihydroinden-4-yl]-3,5-difluoro-5,6,7,8-tetrahydronaphthalene-1-carbonitrile]
16 | < 100 nM | Cc1ccc(-c2ccc([C@H]3CC[C@H](F)c4cc(F)cc(C#N)c43)c3c2[C@H](O)C(F)(F)C3)c(N)c1 [Example 195, (5S,8R)-8-[(1S)-7-(2-amino-4-methylphenyl)-2,2-difluoro-1-hydroxy-1,3-dihydroinden-4-yl]-3,5-difluoro-5,6,7,8-tetrahydronaphthalene-1-carbonitrile]
17 | < 100 nM | N#Cc1cc(F)cc2c1[C@@H](c1ccc(-c3c(N)cccc3F)c3c1CC(F)(F)[C@H]3O)CC[C@@H]2F [Example 196, (5S,8R)-8-[(1S)-7-(2-amino-6-fluorophenyl)-2,2-difluoro-1-hydroxy-1,3-dihydroinden-4-yl]-3,5-difluoro-5,6,7,8-tetrahydronaphthalene-1-carbonitrile]
18 | < 100 nM | N#Cc1ccc(-c2ccc([C@H]3CC[C@H](F)c4cc(F)cc(C#N)c43)c3c2[C@H](O)C(F)(F)C3)c(N)c1 [Example 197, (5S,8R)-8-[(1S)-7-(2-amino-4-cyanophenyl)-2,2-difluoro-1-hydroxy-1,3-dihydroinden-4-yl]-3,5-difluoro-5,6,7,8-tetrahydronaphthalene-1-carbonitrile]
19 | 100 to 1000 nM | Cc1nc(S(C)(=O)=O)ccc1-c1ccc([C@H]2CC[C@H](F)c3cc(F)cc(C#N)c32)c2c1[C@H](O)C(F)(F)C2 [Example 198, (5S,8R)-8-[(1S)-2,2-difluoro-1-hydroxy-7-(2-methyl-6-methylsulfonylpyridin-3-yl)-1,3-dihydroinden-4-yl]-3,5-difluoro-5,6,7,8-tetrahydronaphthalene-1-carbonitrile]
20 | < 100 nM | N#Cc1cc(F)cc2c1[C@@H](c1ccc(-n3ccnc3)c3c1CC(F)(F)[C@H]3O)CC[C@@H]2F [Example 199, (5S,8R)-8-[(1S)-2,2-difluoro-1-hydroxy-7-imidazol-1-yl-1,3-dihydroinden-4-yl]-3,5-difluoro-5,6,7,8-tetrahydronaphthalene-1-carbonitrile]
21 | 100 to 1000 nM | N#Cc1cc(F)cc2c1[C@@H](c1ccc(Nc3ccccn3)c3c1CC(F)(F)[C@H]3O)CC[C@@H]2F [Example 200, (5S,8R)-8-[(1S)-2,2-difluoro-1-hydroxy-7-(pyridin-2-ylamino)-1,3-dihydroinden-4-yl]-3,5-difluoro-5,6,7,8-tetrahydronaphthalene-1-carbonitrile]
22 | < 100 nM | N#Cc1cc(F)cc2c1[C@@H](c1ccc(C#N)c3c1CC(F)(F)[C@H]3O)CC[C@@H]2F [Example 201, (5S,8R)-8-[(1S)-7-cyano-2,2-difluoro-1-hydroxy-1,3-dihydroinden-4-yl]-3,5-difluoro-5,6,7,8-tetrahydronaphthalene-1-carbonitrile]
23 | < 100 nM | Cn1cc(-c2c(F)cc([C@H]3CC[C@H](F)c4cc(F)cc(C#N)c43)c3c2[C@H](O)C(F)(F)C3)nn1 [Example 202, (5S,8R)-3,5-Difluoro-8-[(1S)-2,2,6-trifluoro-1-hydroxy-7-(1-methyltriazol-4-yl)-1,3-dihydroinden-4-yl]-5,6,7,8-tetrahydronaphthalene-1-carbonitrile]
